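Assay format: 96-well plates, 48-hour exposure. GI50 is the concentration that inhibits growth by half. At the TGI there is no net growth.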
Experiments:
Experiment in all cases: growth of human tumour cells (NCI), 48 h
[1] = system: SK-OV-3 ovarian
[2] = system: M14 melanoma
[3] = system: OVCAR-4 ovarian
[4] = system: ACHN renal
[5] = system: UACC-62 melanoma
[6] = system: CAKI-1 renal
[7] = system: RPMI-8226 leukemia
[8] = system: TK-10 renal
[9] = system: SNB-75 CNS
[10] = system: SR leukemia

SMILES | TGI [1] [µM] | TGI [2] [µM] | TGI [3] [µM] | TGI [4] [µM] | TGI [5] [µM] | TGI [6] [µM] | TGI [7] [µM] | TGI [8] [µM] | GI50 [9] [µM] | TGI [9] [µM] | GI50 [1] [µM] | GI50 [2] [µM] | GI50 [3] [µM] | GI50 [4] [µM] | GI50 [5] [µM] | GI50 [6] [µM] | GI50 [7] [µM] | GI50 [8] [µM] | GI50 [10] [µM] | TGI [10] [µM]
OC1OC2COC(c3ccccc3)OC2C(O)C1O (stereo not drawn) | > 100 | > 100 | > 100 | > 100 | > 100 | > 100 | > 100 | > 100 |  |  |  |  |  |  |  |  |  |  |  | 
CCCCCCCCCCCC(=O)[O][Sn]([CH2]CCC)([CH2]CCC)[CH2]CCC | 0.193 | 0.142 | 0.153 | 0.157 | 0.11 | 0.216 | 0.098 | 0.0677 | 0.0282 | 0.113 | 0.0617 | 0.0548 | < 0.0212 | 0.0596 | 0.0515 | 0.0965 | 0.0228 | 0.0271 |  | 
COC(=O)/C=C/c1cc(OC)c2c(c1)[C@@H](C(=O)OC)[C@H](c1ccc(OC)c(OC)c1)O2 | > 100 | > 100 | > 100 | > 100 | > 100 |  |  | > 100 | 0.432 | > 100 | 6.13 | 0.816 | 4.76 | 4.45 | 0.972 |  |  | 62.7 | 0.543 | > 100
Nc1c(C(=O)Nc2cccc3ccccc23)sc2nc3c(cc12)CCCCCC3 | > 50 | > 50 | > 50 | > 50 | > 50 |  | > 50 | > 50 | 1.24 | > 50 | 1.95 | 1.05 | 5.75 | 2.79 | 1.62 |  | 2.03 | > 50 | 0.429 | > 50
C=C1[C@@H]2CCC(C)(C)[C@H]1CCC(=O)[C@@H]2C(=O)OC |  | > 100 | > 100 | > 100 | > 100 |  | > 100 | > 100 |  |  |  |  |  |  |  |  |  |  |  | > 100
Nc1c2c(c(O)c3c1=C(CO)C=N3)=NCCS2=O (stereo not drawn) | 10.9 | 3.09 | 1.22 |  | 3.39 |  | 13.5 | 31.8 | 1.74 | 3.18 | 3.11 | 1.59 | 0.312 |  | 1.71 |  | 3.29 | 17.5 | 1.76 | 9.33
COc1ccc2c(C(=O)NCCCCCC(=O)O)cc3cc4c(cc3c2c1)OCO4 | > 100 | > 100 |  | > 100 | > 100 | > 100 | > 100 | > 100 | 23.9 | 97.9 | > 100 | > 100 |  | > 100 | 83 | > 100 | > 100 | > 100 |  | 
COc1ccc(/C=C/c2cnnc3ccccc23)cc1OC | > 10 | > 10 | > 10 | > 10 | > 10 | > 10 | > 10 | > 10 |  | > 10 |  |  |  |  |  |  |  |  |  | 
